Data: ChEMBL document CHEMBL1151186, “Ether-linked biflavonoids from Quintinia acutifolia” (J Nat Prod, 2004)
In brackets after ≈: the same amount, converted by molar mass. Activity calls are given as the source filed them. The calls are words filed in the database; no cut-off is given here.

Tests used:
P388 [1] = assay: Cytotoxicity against mouse P388 cells; assay type: functional, cell-based
Bacillus subtilis [2] = assay: Antimicrobial activity against Bacillus subtilis ATCC 19659 at 150 ug/disk; assay type: functional, organism-based
Bacillus subtilis [3] = assay: Antimicrobial activity against Bacillus subtilis ATCC 19659 at 30 ug/disk; assay type: functional; details: read-out: IZ
P388 [4] = assay: Cytotoxicity against mouse P388 cells at 0.06 ug/mL; assay type: functional

Row | SMILES | IC50 (P388 [1]) | Activity (Bacillus subtilis [2]) | zone of inhibition at 30 µg/disc (Bacillus subtilis [3]) | Activity (P388 [4])
1 | O=C1CC(c2ccc(Oc3cc(C4CC(=O)c5c(O)cc(O)cc5O4)ccc3O)cc2)Oc2cc(O)cc(O)c21 (centres undefined) | 8.2 µg/mL (≈ 15.1 µM) | inactive |  | 
2 | COc1cc(O)c2c(c1)OC(c1ccc(Oc3cc(C4CC(=O)c5c(O)cc(OC)cc5O4)ccc3O)cc1)CC2=O (centres undefined) | 8.7 µg/mL (≈ 15.2 µM) | inactive |  | 
3 | COc1cc(O)c2c(c1)OC(c1ccc(O)c(Oc3ccc(C4CC(=O)c5c(O)cc(O)cc5O4)cc3)c1)CC2=O (centres undefined) |  | inactive |  | 
4 | O=C(N[C@H](CO)[C@H](O)c1ccc([N+](=O)[O-])cc1)C(Cl)Cl [CHLORAMPHENICOL] |  |  | 12 mm | 
5 | O=C1CC(c2ccc(Oc3cc(-c4cc(=O)c5c(O)cc(O)cc5o4)ccc3O)cc2)Oc2cc(O)cc(O)c21 (centres undefined) | 3.1 µg/mL (≈ 5.74 µM) | inactive |  | 
6 | CO[C@@]12[C@H](COC(N)=O)C3=C(C(=O)C(C)=C(N)C3=O)N1C[C@@H]1N[C@@H]12 [MITOMYCIN] |  |  |  | 43%
